Reference: PubChem BioAssay (NCI)
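Compound exposure: 48 hours, 5 concentrations, 96-well plates. Abbreviation: GI50, concentration required for 50% inhibition of growth. TGI is the concentration that stops growth completely.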

How the values were obtained:
Assay in all cases: NCI-60 cell line screen, 48 h
A498 renal = tested on: A498 renal
BT-549 breast = tested on: BT-549 breast
HS 578T breast = tested on: HS 578T breast
MCF7 breast = tested on: MCF7 breast
MOLT-4 leukemia = tested on: MOLT-4 leukemia
SNB-75 CNS = tested on: SNB-75 CNS
U251 CNS = tested on: U251 CNS
UO-31 renal = tested on: UO-31 renal

Compound | GI50 (A498 renal) | TGI (A498 renal) | GI50 (BT-549 breast) | TGI (BT-549 breast) | GI50 (HS 578T breast) | TGI (HS 578T breast) | GI50 (MCF7 breast) | TGI (MCF7 breast) | GI50 (MOLT-4 leukemia) | TGI (MOLT-4 leukemia) | GI50 (SNB-75 CNS) | TGI (SNB-75 CNS) | GI50 (U251 CNS) | TGI (U251 CNS) | GI50 (UO-31 renal) | TGI (UO-31 renal)
COC(=O)Nc1ccc2ccc3c(NC(=O)OC)ccc4ccc1c2c43 (tested in a mixture with another compound) | 8.26 µM | > 50 µM | 5.5 µM | 14 µM | 9.01 µM | 40.4 µM | 27.1 µM | > 50 µM | 7.07 µM | 33.7 µM | 12.6 µM | > 50 µM | 12 µM | > 50 µM | 5.21 µM | 18.3 µM
CN(C)c1cccc2[nH]c(-c3[nH]ncc3Nc3ccnc(N)n3)nc12 | 0.013 µM | 0.037 µM | 0.0165 µM | 0.0979 µM | < 0.0156 µM | 0.261 µM | 0.0206 µM | 1.15 µM | 0.0258 µM | 10.2 µM | < 0.0108 µM | 0.0302 µM | < 0.0119 µM | 1.33 µM | < 0.0142 µM | 0.276 µM
Cc1sc2ncnc(Sc3nc4ccccc4[nH]3)c2c1C | 12.2 µM | 52.9 µM | 27.2 µM | > 100 µM | 18.4 µM | 67.6 µM | 13.6 µM | 67 µM | 22.2 µM | 88.7 µM | 1.52 µM | 27 µM | 18.8 µM | 43.2 µM | 14.7 µM | 96.7 µM
COc1nccc(-c2c(-c3ccc(F)cc3)ncn2C2CCC(O)CC2)n1 (stereo not given) | 21.5 µM | > 100 µM | > 100 µM | > 100 µM | > 100 µM | > 100 µM | 24.9 µM | > 100 µM | > 95.3 µM | > 100 µM | > 100 µM | > 100 µM | > 86.9 µM | > 100 µM | 10.1 µM | > 100 µM
CCCCCCCCCCCCCCCCC(C(=O)O)C(O)(CC(=O)O)C(=O)O (stereo not given) | – | 47.6 µM | – | 51.3 µM | – | 58.6 µM | – | > 100 µM | – | 61.6 µM | – | 43.8 µM | – | 33.1 µM | – | 45.4 µM
CC1CCC2(OC1)OC1CC3C4CC=C5CC(OC6OC(CO)C(OC7OC(C)C(OC8OC(C)C(O)C(O)C8O)C(O)C7O)C(O)C6OC6OC(C)C(O)C(O)C6O)CCC5(C)C4CCC3(C)C1C2C (stereo not given) | – | 1.55 µM | – | 3.07 µM | – | 1.77 µM | – | 3.25 µM | – | 0.958 µM | – | 1.64 µM | – | 1.96 µM | – | 1.67 µM
COC(=O)c1c2c(c(C)[n+]([O-])c1C)C(=O)C=C(NCc1ccc(Cl)cc1)C2=O | 1.21 µM | 2.47 µM | 1.22 µM | 2.58 µM | 1.77 µM | 6.5 µM | 0.267 µM | 0.98 µM | 0.514 µM | 2.92 µM | 1.65 µM | 3.03 µM | 0.598 µM | 1.88 µM | 1.16 µM | 2.66 µM
CCOC(=O)C1CCC/C1=N\N=C(N)N (stereo not given) (tested in a mixture with another compound) | – | > 100 µM | – | > 100 µM | – | > 100 µM | – | > 100 µM | – | > 100 µM | – | > 100 µM | – | > 100 µM | – | > 100 µM
O=C(Oc1ccccc1)c1cc(O)c(O)c(O)c1 | 5 µM | 76.1 µM | 15.6 µM | 83.2 µM | 4.67 µM | > 100 µM | 24.7 µM | > 100 µM | 2.23 µM | 26.2 µM | 7.41 µM | > 100 µM | 10.7 µM | > 100 µM | 2.93 µM | > 100 µM
